Source: US12725802B2, “Aqueous rechargeable battery including organic positive active material” (Seoul National University R&DB Foundation, priority 2021, dated 2026)
In brackets after ≈: the same amount, converted by molar mass. Read-outs that look alike come from different tables or passages of the source.

Assays:
[1] = Analysis of solubility of positive active material in the electrolyte during cycle (electrode washed with new electrolyte, color; UV-visible spectroscopy); format: physicochemical; details: FIG. 7
Experimental: Each cell of Comparative Example 1 and Examples 1 and 2 was checked regarding how much the positive active materials were dissolved when the electrodes were taken out during the charge and washed with a new electrolyte, and the results are shown in FIG. 7.
FIG. 8 is a graph quantitatively analyzing amounts of DMPZ dissolved in each electrolyte of Comparative Example 1 and Examples 1 and 2. The cycled DMPZ electrode was re-wetted in the electrolyte, and ultraviolet (UV)-visible ray spectroscopy was performed with respect to solutions in each of the DMPZ^+ and DMPZ^2+ states to measure areas of an absorption spectrum and thus obtain each amount of DMPZ^+ and DMPZ^2+ dissolved out in the electrolyte. In FIG. 8, a vertical axis indicates the DMPZ state according to SOC, while a horizontal axis indicates a weight change as solubility (%). In FIG. 8, Comparative Example 1 is shown on the right, Example 1 is in the middle, and Example 2 is on the left.

[2] = Visual observation of the solubility of DMPZ in various solvents (color change, naked eye); format: physicochemical; details: FIG. 3; for solubility: organic solvent or mixture, read-out: solubility (concentration dissolved)
From the text: DMPZ was respectively dissolved in various solvents, and color changes in the solutions were examined with the naked eye to evaluate dissolution degrees.

CN1c2ccccc2N(C)c2ccccc21 [DMPZ, 5,10-dihydro-5,10-dimethylphenazine]
solubility in the electrolyte during the cycles ([1]; Comparative Example 1 electrolyte: 1 M NaClO4 in TEGDME, DMPZ, DMPZ+ (SOC 50) and DMPZ2+ (SOC 100)): high solubility | solubility in the electrolyte during the cycles ([1]; Example 1 electrolyte: 1 m NaClO4 and 0.5 m Zn(CF3SO3)2 in water, charged DMPZ (DMPZ+, DMPZ2+)): slightly dissolved | solubility in the electrolyte during the cycles ([1]; Example 2 electrolyte: 17 m NaClO4 and 0.5 m Zn(CF3SO3)2 in water, DMPZ, DMPZ+ and DMPZ2+): not dissolved at all | solubility ([2]; dimethyl carbonate (DMC)): ≥ 100 mM | solubility ([2]; propylene carbonate (PC)): ~20 mM (≈ 4.21 mg/mL) | solubility ([2]; tetraethylene glycol dimethyl ether (TEGDME)): ≥ 100 mM | solubility (dissolution) ([2]; water solvent): not dissolved in the water solvent at all
